Laboratory results reported in PubChem BioAssay AID1963421 (Molecular Pharmacology Branch, DTP, NCI, 2024).

Test system: 519858-162-T-J1-PDC complex spheroid growth, % test/control
Test: Anticancer human tumor 519858-162-T-J1-PDC patient-derived colon adenocarcinoma cell line growth inhibition [Asc]
Conditions: for IC50: curve of first compound; for viability, T/C: stronger effect = lower value
Protocol: Multicellular complex tumor spheroid response to apoptosis pathway targeting inhibitors Alrizomadlin, Pelcitoclax, and Dasminapant in combination with a variety of drugs and investigational agents in selected tumor cell lines
The MDM2 inhibitor alrizomadlin, the Bcl-2/Bcl-xL inhibitor pelcitoclax, and the IAPs inhibitor dasminapant were evaluated both individually and in combination with standard of care and investigational anticancer small molecules within a complex spheroid model of solid tumors. . Complex spheroids include a stromal component modeled by human endothelial cells (HUVEC) and fibroblasts modeled by human mesenchymal stem cells (MSCs). The concentration ranges selected for each drug and investigational agent were based upon clinically achievable concentrations if the clinical Cmax of the agent was known.
Compounds. The drugs and investigational agents: alrizomadlin (APG-115; NSC831270), pelcitoclax (APG-1252; NSC835773), dasminapant (APG-1387;NSC834197), TAK-243 (NSC785004), copanlisib (NSC809693), olaparib (NSC753686), talazoparib (NSC767125), cobimetinib (NSC 768068), eltanexor (KPT-8602, NSC 794443), abemaciclib (NSC 768073), sotorasib (NSC818433), adagrasib (NSC 831453), MRTX-1133 (NSC 836407), Iadademestat (ORY1001, NSC 806812), and RMC-4630 (NSC839698), were obtained from the NCI Developmental Therapeutics Program Chemical Repository. The FDA-approved anticancer drug set is available from the Developmental Therapeutics Program at https://dtp.cancer.gov/organization/dscb/obtaining/available plates.htm. […] The stock solutions were prepared in dimethyl sulfoxide (DMSO, Sigma-Aldrich, St. Louis, MO, cat. D2650) at 800-fold the tested concentration and stored at -70 degrees C prior to their use. All drugs and investigational agents were tested over a range starting from a high concentration at or near the clinical Cmax and decreasing in half-log increments. If the clinical Cmax for an agent had not been determined, the highest concentration tested was 10 microM.
The patient-derived cancer (PDC) cell lines include five colon adenocarcinomas: 186277-243-T-J2-PDC, 616215-338-R-J1-PDC, 439559-082-T-J2-PDC, 463943-066-T-J2-PDC, and 519858-162-T-J1-PDC; three pancreatic carcinomas: 323965-272-R-J2-PDC, 521955-158-R6-J3-PDC, and 521955-158-R2-J5-PDC; two uterine sarcomas: 327498-152-R-J2-PDC and 993429-296-R-J1-PDC; two rhabdomyosarcomas: 755483-174-R-J1-PDC and 772245-204-R-J1-PDC; two soft tissue sarcomas: 126254-015-R-J1-PDC and 494315-158-R-J1-PDC; two malignant fibrous histiocytomas: 317291-083-R-J1-PDC and 596521-263-R-J1-PDC; two breast carcinomas: 171881-019-R-J1-PDC and 885512-296-R-J2-PDC; and one ovarian carcinoma: 6556581-035-R-J-PDC were obtained from the NCI PDMR, (https://pdmr.cancer.gov). The established cell lines HSSY-2 synovial sarcoma (RRID:CVCL 8719), SYO-1 synovial sarcoma (RRID:CVCL_7146), MPNST malignant peripheral neural sheath tumor were obtained from the Sloan Kettering Institute. The following established cell lines were purchased from the American Type Culture Collection (ATCC, Manassas, VA), Sor the received from the NCI repository:, PANC-1 pancreatic carcinoma (CRL-1469, RRID:CVCL_0480), OVCAR-5 ovarian carcinoma (RRID:CVCL_1628), OVCAR-8 ovarian carcinoma (RRID:CVCL_1629), , MCF-7 breast carcinoma (CRL-12584, RRID:CVCL_0031), MDA-MB-231 breast carcinoma (CRL-12532, RRID:CVCL_0062), NCI-H1876 small cell lung carcinoma (CRL-5902, RRID:CVCL_1503), NCI-H510A small cell lung carcinoma (HTB-184, RRID:CVCL_1565), NCI-H1417 (CRL-5869, RRID:CVCL_1469), and NCI-H196 small cell lung carcinoma (CRL-5823, RRID:CVCL_1509). Dr. Peter Houghton (Greehey Children's Cancer Research Institute, University of Texas Health Science Center, San Antonio, TX) provided Rh-18 rhabdomyosarcoma (RRID:CVCL_1659). Pooled donor human umbilical vein endothelial cells (HUVEC, Lonza, cat. CC-2519) and human mesenchymal stem cells (hMSC, Lonza, cat. PT-2501) were purchased from Lonza (Walkersville, MD).
Cell Culture. […]
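Further: seven day drug exposure begun three days after spheroid seeding.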
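Wherever viability, T/C is given: 100% = DMSO vehicle wells and lower values mean less viable spheroid.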

`O=C(c1cc(Cc2n[nH]c(=O)c3ccccc23)ccc1F)N1CCN(C(=O)C2CC2)CC1` + CCN1C(C(=O)NC23CCC(C(=O)O)(CC2)CC3)C(c2cccc(Cl)c2F)C2(C(=O)Nc3cc(Cl)ccc32)C12CCCCC2 showed an IC50 (second compound 0.00949 µM) greater than 10 µM, an IC50 (second compound 0.03 µM) greater than 10 µM and an IC50 (second compound 0.0949 µM) greater than 10 µM. The IC50 (second compound 0.3 µM) was greater than 10 µM, the IC50 (second compound 0.949 µM) was greater than 10 µM and the IC50 (second compound 3 µM) was greater than 10 µM. It also gave a viability, T/C (second compound 0.00949 µM, first compound 0.0316 µM) of 106%, a viability, T/C (second compound 0.00949 µM, first compound 0.1 µM) of 81.9% and a viability, T/C (second compound 0.00949 µM, first compound 0.316 µM) of 101%. For the same molecule, the viability, T/C (second compound 0.00949 µM, first compound 1 µM) was 81%, the viability, T/C (second compound 0.00949 µM, first compound 3.16 µM) was 90.8% and the viability, T/C (second compound 0.00949 µM, first compound 10 µM) was 79.4%. The viability, T/C (second compound 0.03 µM, first compound 0.0316 µM) was 130%, the viability, T/C (second compound 0.03 µM, first compound 0.1 µM) was 82.9% and the viability, T/C (second compound 0.03 µM, first compound 0.316 µM) was 127%. The viability, T/C (second compound 0.03 µM, first compound 1 µM) was 93.2%, the viability, T/C (second compound 0.03 µM, first compound 3.16 µM) was 75.2% and the viability, T/C (second compound 0.03 µM, first compound 10 µM) was 74.9%. It also gave a viability, T/C (second compound 0.0949 µM, first compound 0.0316 µM) of 117%, a viability, T/C (second compound 0.0949 µM, first compound 0.1 µM) of 103% and a viability, T/C (second compound 0.0949 µM, first compound 0.316 µM) of 101%. It also gave a viability, T/C (second compound 0.0949 µM, first compound 1 µM) of 77%, a viability, T/C (second compound 0.0949 µM, first compound 3.16 µM) of 92.7% and a viability, T/C (second compound 0.0949 µM, first compound 10 µM) of 100%. The viability, T/C (second compound 0.3 µM, first compound 0.0316 µM) was 163%, the viability, T/C (second compound 0.3 µM, first compound 0.1 µM) was 94.9% and the viability, T/C (second compound 0.3 µM, first compound 0.316 µM) was 99.2%. The viability, T/C (second compound 0.3 µM, first compound 1 µM) was 83.3%, the viability, T/C (second compound 0.3 µM, first compound 3.16 µM) was 85.2% and the viability, T/C (second compound 0.3 µM, first compound 10 µM) was 72.2%. For the same molecule, the viability, T/C (second compound 0.949 µM, first compound 0.0316 µM) was 71.9%, the viability, T/C (second compound 0.949 µM, first compound 0.1 µM) was 70.6% and the viability, T/C (second compound 0.949 µM, first compound 0.316 µM) was 76.5%. It also gave a viability, T/C (second compound 0.949 µM, first compound 1 µM) of 86.5%, a viability, T/C (second compound 0.949 µM, first compound 3.16 µM) of 85.2% and a viability, T/C (second compound 0.949 µM, first compound 10 µM) of 94%. For the same molecule, the viability, T/C (second compound 3 µM, first compound 0.0316 µM) was 63.8%, the viability, T/C (second compound 3 µM, first compound 0.1 µM) was 89.3% and the viability, T/C (second compound 3 µM, first compound 0.316 µM) was 94.7%. The viability, T/C (second compound 3 µM, first compound 1 µM) was 73.4%, the viability, T/C (second compound 3 µM, first compound 3.16 µM) was 100% and the viability, T/C (second compound 3 µM, first compound 10 µM) was 76%.
